Structures are written as SMILES. A value given as a limit tells only on which side of the number the result lay.

This experiment deals with T1, human TLR8 (Homo sapiens, UniProt Q9NR97).
T1 construct: host or cells: HEK293 (HEK-Blue)
T1 sequence (Q9NR97 27-1041): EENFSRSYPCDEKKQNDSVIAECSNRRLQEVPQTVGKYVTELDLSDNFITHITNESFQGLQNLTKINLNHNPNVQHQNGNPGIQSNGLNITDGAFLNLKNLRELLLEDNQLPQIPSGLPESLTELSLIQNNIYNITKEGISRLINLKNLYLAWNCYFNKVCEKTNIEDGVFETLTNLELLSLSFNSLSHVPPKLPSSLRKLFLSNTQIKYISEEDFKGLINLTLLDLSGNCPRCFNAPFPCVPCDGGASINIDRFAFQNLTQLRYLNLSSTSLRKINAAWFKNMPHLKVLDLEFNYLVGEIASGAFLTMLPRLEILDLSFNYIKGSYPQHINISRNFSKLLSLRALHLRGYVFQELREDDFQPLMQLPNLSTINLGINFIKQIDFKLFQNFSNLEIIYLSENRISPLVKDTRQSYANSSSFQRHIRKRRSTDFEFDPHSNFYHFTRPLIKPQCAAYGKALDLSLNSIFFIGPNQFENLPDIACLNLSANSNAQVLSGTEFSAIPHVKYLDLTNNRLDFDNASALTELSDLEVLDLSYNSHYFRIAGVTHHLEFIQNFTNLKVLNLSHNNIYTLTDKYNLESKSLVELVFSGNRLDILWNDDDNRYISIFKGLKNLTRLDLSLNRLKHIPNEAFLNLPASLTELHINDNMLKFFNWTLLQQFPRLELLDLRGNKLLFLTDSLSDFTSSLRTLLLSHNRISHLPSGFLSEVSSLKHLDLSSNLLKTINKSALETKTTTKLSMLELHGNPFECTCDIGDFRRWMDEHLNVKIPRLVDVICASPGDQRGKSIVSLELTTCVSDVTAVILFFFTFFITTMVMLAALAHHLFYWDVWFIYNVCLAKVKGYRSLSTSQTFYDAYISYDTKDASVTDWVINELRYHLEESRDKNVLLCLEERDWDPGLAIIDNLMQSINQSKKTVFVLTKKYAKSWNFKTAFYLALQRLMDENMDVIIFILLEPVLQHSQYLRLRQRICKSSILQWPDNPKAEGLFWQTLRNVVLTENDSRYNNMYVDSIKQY
Nature of the experiment: HEK293-Blue-hTLR-8 cells assay (SEAP reporter, R848 stimulation). It is filed as cell-based. The following applies: HEK293-Blue-hTLR8 cells, R848, 20 hrs; read-out: HEK/hTLR8 IC50. An excerpt:
A stable HEK293-Blue-hTLR-8 cell line was purchased from InvivoGen (Cat.#: hkb-htlr8, San Diego, California, USA). These cells were originally designed for studying the stimulation of human TLR8 by monitoring the activation of NF-κB. A SEAP (secreted embryonic alkaline phosphatase) reporter gene was placed under the control of the IFN-β minimal promoter fused to five NF-κB and AP-1-binding sites. The SEAP was induced by activating NF-κB and AP-1 via stimulating HEK-Blue hTLR8 cells with TLR8 ligands. Therefore, the reporter expression was declined by TLR8 antagonist under the stimulation of a ligand, such as R848, for incubation of 20 hrs. The cell culture supernatant SEAP reporter activity was determined using QUANTI-Blue™ kit (Cat.#: rep-qb1, Invivogen, San Diego, Ca, USA) at a wavelength of 640 nm, a detection medium that turns purple or blue in the presence of alkaline phosphatase.
HEK293-Blue-hTLR8 cells were incubated at a density of 250,000-450,000 cells/mL in a volume of 170 µL in a 96-well plate in Dulbecco's Modified Eagle's medium (DMEM) containing 4.5 g/L glucose, 50 U/mL penicillin, […], […], 2 mM L-glutamine, 10% (v/v) heat-inactivated fetal bovine serum with addition of 20 µL test compound in a serial dilution in the presence of final DMSO at 1% and 10 µL of 60uM R848 in above DMEM, perform incubation under 37 °C in a CO2 incubator for 20 hrs. Then 20 µL of the supernatant from each well was incubated with 180 µL Quanti-blue substrate solution at 37°C for 2 hrs and the absorbance was read at 620-655 nm using a spectrophotometer. The signaling pathway that TLR8 activation leads to downstream NF-κB activation has been widely accepted, and therefore similar reporter assay was modified for evaluating TLR8 antagonist.

As for `C[C@@H]1CN(c2ccc(C#N)c3ncccc23)C[C@H](CN2C[C@H]3CN(c4ccc5c(n4)CCNC5)CC[C@H]32)O1` (single isomer, unassigned) [Example 55], the IC50 worked out at 16 nM.

For the molecule `C[C@@H]1CN(c2ccc(C#N)c3ncccc23)C[C@H](CN2CCN(c3ccc4c(c3)CNC4)CC2CO)O1` (stereo partly drawn) [Example 15, 5-[(2S,6R)-2-[[2-(hydroxymethyl)-4-isoindolin-5-yl-piperazin-1-yl]methyl]-6-methyl-morpholin-4-yl]quinoline-8-carbonitrile], the IC50 amounted to 11 nM.

For `C[C@@H]1CN(c2ccc(C#N)c3ncccc23)C[C@H](CN2C[C@@H]3[C@@H](C2)OCCN3c2cnc3c(c2)CCNC3)O1` [Example 52, 5-[(2S,6R)-2-[[(4aR,7aR)-4-(5,6,7,8-tetrahydro-1,7-naphthyridin-3-yl)-2,3,4a,5,7,7a-hexahydropyrrolo[3,4-b][1,4]oxazin-6-yl]methyl]-6-methylmorpholin-4-yl]quinoline-8-carbonitrile], the IC50 was 26 nM.

As to `C[C@@H]1CN(c2ccc(C#N)c3ncccc23)C[C@H](CN2CCN(c3ccc4c(n3)[C@@H](C)NC4)CC2)O1` (single isomer, unassigned) [Example 65], the IC50 was 9 nM.

Regarding `C[C@@H]1CN(c2ccc(C#N)c3ncccc23)C[C@H](CN2CCN(c3ncc4c(n3)CNCC4)CC2)O1` [Example 12, 5-[(2R,6S)-2-methyl-6-[[4-(5,6,7,8-tetrahydropyrido[3,4-d]pyrimidin-2-yl)piperazin-1-yl]methyl]morpholin-4-yl]quinoline-8-carbonitrile], the IC50 was 5 nM.

As for `C[C@@H]1CN(c2ccc(C#N)c3ncccc23)C[C@H](CN2CCN(c3cc4c(cn3)CNC4)CC2)O1` [Example 18, 5-[(2S,6R)-2-[[4-(2,3-dihydro-1H-pyrrolo[3,4-c]pyridin-6-yl)piperazin-1-yl]methyl]-6-methyl-morpholin-4-yl] quinoline-8-carbonitrile], the IC50 was 9 nM.

In the case of `C[C@@H]1CN(c2ccc(C#N)c3ncccc23)C[C@H](CN2CCN(c3ncc4c(n3)CNC4)CC2)O1` [Example 11, 5-[(2S,6R)-2-[[4-(6,7-dihydro-5Hpyrrolo[3,4-d]pyrimidin-2-yl)piperazin-1-yl]methyl]-6-methyl-morpholin-4-yl]quinoline-8-carbonitrile], the IC50 turned out to be 8 nM.

With `C[C@@H]1CN(c2ccc(C#N)c3ncccc23)C[C@H](CN2CCN(c3cnc4c(c3)CN[C@H]4C)CC2)O1` (single isomer, unassigned) [Example 67], the IC50 was 20 nM.

In the case of `C[C@@H]1CN(c2ccc(C#N)c3nccnc23)C[C@H](CN2CCN(c3cc4c(cn3)CN[C@@H](C)C4)CC2)O1` (single isomer, unassigned) [Example 84], the IC50 worked out at 2 nM.

As to `COC1CNCc2ccc(N3CCN(C[C@H]4CN(c5ccc(C#N)c6ncccc56)C[C@@H](C)O4)CC3)cc21` (stereo partly drawn) [Example 58, 5-[(2S,6R)-2-[[4-(4-methoxy-1,2,3,4-tetrahydroisoquinolin-6-yl)piperazin-1-yl]methyl]-6-methyl-morpholin-4-yl]quinoline-8-carbonitrile], the IC50 was 15 nM.

As for `C[C@@H]1CN(c2ccc(C#N)c3ncccc23)C[C@H](CN2CC3(C2)CN(c2ccc4c(c2)CCNC4)CCO3)O1` [Example 44, 5-[(2R,6S)-2-methyl-6-[[8-(1,2,3,4-tetrahydroisoquinolin-6-yl)-5-oxa-2,8-diazaspiro[3.5]nonan-2-yl]methyl]morpholin-4-yl]quinoline-8-carbonitrile], the IC50 is 4 nM.

For `C[C@@H]1CN(c2ccc(C#N)c3ncccc23)C[C@H](CN2CCC(Nc3ncc4c(n3)CNC4)C2)O1` (stereo partly drawn) [Example 32, 5-[(2S,6R)-2-[[3-(6,7-dihydro-5H-pyrrolo[3,4-d]pyrimidin-2-ylamino)pyrrolidin-1-yl]methyl]-6-methyl-morpholin-4-yl]quinoline-8-carbonitrile], the IC50 worked out at 107 nM.

As to `C[C@@H]1CN(c2ccc(C#N)c3ncccc23)C[C@H](CN2CC3(CCN3c3ccc4c(n3)CCNC4)C2)O1` [Example 36, 5-[(2R,6S)-2-methyl-6-[[1-(5,6,7,8-tetrahydro-1,6-naphthyridin-2-yl)-1,6-diazaspiro[3.3]heptan-6-yl]methyl]morpholin-4-yl]quinoline-8-carbonitrile], the IC50 stood at 43 nM.

Consider `C[C@@H]1CN(c2ccc(C#N)c3ncccc23)C[C@H](CN2CCN(c3ccc4c(c3)CCNC4CO)CC2)O1` (stereo partly drawn) [Example 24, 5-[(2S,6R)-2-[[4-[1-(hydroxymethyl)-1,2,3,4-tetrahydroisoquinolin-6-yl]piperazin-1-yl]methyl]-6-methyl-morpholin-4-yl]quinoline-8-carbonitrile], for which the IC50 is 22 nM.

On to `C[C@@H]1CN(c2ccc(C#N)c3ncccc23)C[C@H](CN2CCN(c3ccc4c(n3)CN[C@@H]4C)CC2)O1` (single isomer, unassigned) [Example 64], for which the IC50 came to 6 nM.

Regarding `C[C@@H]1CN(c2ccc(C#N)c3ncccc23)C[C@H](CN2CCN(c3cc4c(cn3)CCN[C@H]4C)CC2)O1` (single isomer, unassigned) [Example 75], the IC50 came to 4 nM.

`C[C@@H]1CN(c2ccc(C#N)c3ncccc23)C[C@H](CN2C[C@H]3CN(c4ccc5c(n4)CCNC5)CC[C@@H]32)O1` (single isomer, unassigned) [Example 54]: the IC50 was determined as 22 nM.

`C[C@@H]1CN(c2ccc(C#N)c3ncccc23)C[C@H](CN2CCN(c3ccc4c(c3)CNC4)[C@@H](CO)C2)O1` [Example 4, 5-[(2S,6R)-2-[[(3R)-3-(hydroxymethyl)-4-isoindolin-5-yl-piperazin-1-yl]methyl]-6-methyl-morpholin-4-yl]quinoline-8-carbonitrile]: the IC50 was 27 nM.

For the molecule `C[C@@H]1CN(c2ccc(C#N)c3ncccc23)C[C@H](CN2CCC(Nc3ccc4c(c3)CNC4)C2)O1` (stereo partly drawn) [Example 38, 5-[(2S,6R)-2-[[3-(isoindolin-5-ylamino)pyrrolidin-1-yl]methyl]-6-methyl-morpholin-4-yl]quinoline-8-carbonitrile], the IC50 amounted to 50 nM.

Take `C[C@@H]1CN(c2ccc(C#N)c3ncccc23)C[C@H](CN2CCN(c3ccc4c(n3)CCN(C)C4)CC2)O1` [Example 34, 5-[(2R,6S)-2-methyl-6-[[4-(6-methyl-7,8-dihydro-5H-1,6-naphthyridin-2-yl)piperazin-1-yl]methyl]morpholin-4-yl]quinoline-8-carbonitrile]: the IC50 was found to be 6 nM.

Turning to `C[C@@H]1CN(c2ccc(C#N)c3ncccc23)C[C@H](CN2CCCN(c3nc4c(s3)CNCC4)CC2)O1` [Example 33, 5-[(2R,6S)-2-methyl-6-[[4-(4,5,6,7-tetrahydrothiazolo[5,4-c]pyridin-2-yl)-1,4-diazepan-1-yl]methyl]morpholin-4-yl]quinoline-8-carbonitrile], the IC50 came to 11 nM.

As to `C[C@@H]1CN(c2ccc(C#N)c3ncccc23)C[C@H](CN2CCN(c3nc4c(s3)CNCC4)CC2)O1` [Example 31, 5-[(2R,6S)-2-methyl-6-[[4-(4,5,6,7-tetrahydrothiazolo[5,4-c]pyridin-2-yl)piperazin-1-yl]methyl]morpholin-4-yl]quinoline-8-carbonitrile], the IC50 was below 3 nM.
